PMC6378327, “Modes of Accessing Bicarbonate for the Regulation of Membrane Guanylate Cyclase (ROS-GC) in Retinal Rods and Cones” (eNeuro, 2019)

Biological target: T1, ROS-GC1 (Bos taurus, UniProt P55203)
T1 construct: gene GUCY2D; core catalytic domain, G817-Y965 (numbering for mature protein), homodimer
Test: activation of purified recombinant core catalytic domain by […] bicarbonate, cGMP radioimmunoassay
Assay type: biochemical
Conditions: 30000 µM

T1 sequence (P55203 873-1021): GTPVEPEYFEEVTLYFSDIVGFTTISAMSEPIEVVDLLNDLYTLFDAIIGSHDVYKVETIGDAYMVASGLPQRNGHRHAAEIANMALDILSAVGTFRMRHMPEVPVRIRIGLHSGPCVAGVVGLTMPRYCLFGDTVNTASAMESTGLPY

`O=C(O)O` [bicarbonate] was tested, and the “activation of purified recombinant core catalytic domain by 30 mM bicarbonate, c” value was 3.4 fold activity at 30 mM.
